What was measured:
[1] = molecular target: T1, Phosphatidylinositol 4,5-bisphosphate 3-kinase catalytic subunit alpha isoform (Homo sapiens, UniProt P42336); assay: Inhibition of recombinant GST-tagged PI3K p110alpha using [32P]ATP after 60 mins by scintillation proximity assay
[2] = molecular target: T2, Phosphatidylinositol 4,5-bisphosphate 3-kinase catalytic subunit delta isoform (Homo sapiens, UniProt O00329); assay: Inhibition of recombinant GST-tagged PI3K p110delta using [32P]ATP after 60 mins by scintillation proximity assay
T2 sequence (O00329 whole entry): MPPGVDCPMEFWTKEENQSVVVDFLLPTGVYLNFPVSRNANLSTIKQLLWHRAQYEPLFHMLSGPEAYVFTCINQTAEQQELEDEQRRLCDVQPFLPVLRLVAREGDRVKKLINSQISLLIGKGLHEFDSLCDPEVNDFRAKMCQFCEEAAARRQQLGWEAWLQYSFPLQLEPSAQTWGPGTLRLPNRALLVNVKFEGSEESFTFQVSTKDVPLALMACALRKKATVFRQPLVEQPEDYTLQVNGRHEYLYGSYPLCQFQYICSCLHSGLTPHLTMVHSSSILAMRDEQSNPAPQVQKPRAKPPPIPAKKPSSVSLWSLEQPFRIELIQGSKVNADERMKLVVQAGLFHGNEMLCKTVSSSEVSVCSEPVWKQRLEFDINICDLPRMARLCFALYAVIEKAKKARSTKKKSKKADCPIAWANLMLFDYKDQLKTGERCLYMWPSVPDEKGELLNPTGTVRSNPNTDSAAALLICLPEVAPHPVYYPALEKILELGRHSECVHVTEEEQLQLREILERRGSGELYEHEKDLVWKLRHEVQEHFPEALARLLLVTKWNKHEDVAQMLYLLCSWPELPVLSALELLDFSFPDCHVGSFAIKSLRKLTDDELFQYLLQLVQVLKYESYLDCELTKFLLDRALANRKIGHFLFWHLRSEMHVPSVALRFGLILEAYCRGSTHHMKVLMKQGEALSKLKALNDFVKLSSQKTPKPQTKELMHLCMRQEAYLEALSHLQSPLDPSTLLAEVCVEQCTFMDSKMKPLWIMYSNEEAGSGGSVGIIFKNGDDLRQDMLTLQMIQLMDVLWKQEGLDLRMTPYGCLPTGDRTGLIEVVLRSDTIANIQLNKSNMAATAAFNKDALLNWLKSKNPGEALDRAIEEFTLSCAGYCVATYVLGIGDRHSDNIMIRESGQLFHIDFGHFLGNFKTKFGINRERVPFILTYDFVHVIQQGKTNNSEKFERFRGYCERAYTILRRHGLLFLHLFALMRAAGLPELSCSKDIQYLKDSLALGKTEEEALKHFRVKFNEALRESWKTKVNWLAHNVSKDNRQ

[3] = molecular target: T3, Phosphatidylinositol 4,5-bisphosphate 3-kinase catalytic subunit beta isoform (Homo sapiens, UniProt P42338); assay: Inhibition of recombinant GST-tagged PI3K p110beta using [32P]ATP after 60 mins by scintillation proximity assay
[4] = Antiinflammatory activity in human neutrophils assessed as inhibition of fMLP-induced oxidative burst; assay type: functional, cell-based; settings: neutrophil
[5] = molecular target: T4, Phosphatidylinositol 4,5-bisphosphate 3-kinase catalytic subunit gamma isoform (Homo sapiens, UniProt P48736)
Description: Inhibition of recombinant GST-tagged PI3K p110gamma using [32P]ATP after 60 mins by scintillation proximity assay

[6] = Antiinflammatory activity in mouse B cells assessed as inhibition of mitogen-induced proliferation; assay type: functional, cell-based
[7] = Antiinflammatory activity in human B cells assessed as inhibition of mitogen-induced proliferation; assay type: functional, cell-based; settings: B-cell
[8] = molecular target: Serine/threonine-protein kinase mTOR (Homo sapiens, UniProt P42345); assay: Inhibition of mTOR
[9] = molecular target: DNA-dependent protein kinase catalytic subunit (Homo sapiens, UniProt P78527); assay: Inhibition of DNA-PK
[10] = molecular target: Phosphatidylinositol 3-kinase catalytic subunit type 3 (Homo sapiens, UniProt Q8NEB9); assay: Inhibition of Vps34
[11] = molecular target: Phosphatidylinositol 4-kinase beta (Homo sapiens, UniProt Q9UBF8); assay: Inhibition of PI4Kbeta
[12] = molecular target: Dual specificity protein kinase CLK1 (Homo sapiens, UniProt P49759); assay: Inhibition of CLK1
[13] = molecular target: Dual specificity protein kinase CLK2 (Homo sapiens, UniProt P49760); assay: Inhibition of CLK2
[14] = Tmax in Wistar rat at 5 mg/kg, po; assay type: ADME, organism-based; design: dose 5 mg/kg, route oral; settings: in vivo
[15] = Cmax in Wistar rat at 5 mg/kg, po; assay type: ADME, organism-based; design: dose 5 mg/kg, route oral; settings: in vivo
[16] = AUC in Wistar rat at 5 mg/kg, po; assay type: ADME, organism-based; design: dose 5 mg/kg, route oral; settings: plasma
[17] = Oral bioavailability in Wistar rat at 5 mg/kg; assay type: ADME, organism-based; settings: in vivo
[18] = Clearance in Wistar rat at 5 mg/kg, po; assay type: ADME, organism-based; design: dose 5 mg/kg, route oral; settings: in vivo
[19] = Half life in Wistar rat at 5 mg/kg, po; assay type: ADME, organism-based; design: dose 5 mg/kg, route oral; settings: in vivo
[20] = tested on: Rattus norvegicus; assay: Volume of distribution at steady state in Wistar rat at 5 mg/kg, po; assay type: ADME, organism-based; design: dose 5 mg/kg, route oral; settings: in vivo
[21] = Tmax in Wistar rat at 10 mg/kg, po; assay type: ADME, organism-based; design: dose 10 mg/kg, route oral; settings: in vivo
[22] = Cmax in Wistar rat at 10 mg/kg, po; assay type: ADME, organism-based; design: dose 10 mg/kg, route oral; settings: in vivo
[23] = (§1) AUC in Wistar rat at 10 mg/kg, po; assay type: ADME, organism-based, Plasma; design: dose 10 mg/kg, route oral; settings: Wistar, plasma
[24] = Oral bioavailability in Wistar rat at 10 mg/kg; assay type: ADME, organism-based; settings: in vivo
[25] = Clearance in Wistar rat at 10 mg/kg, po; assay type: ADME, organism-based; design: dose 10 mg/kg, route oral; settings: in vivo
[26] = Half life in Wistar rat at 10 mg/kg, po; assay type: ADME, organism-based; design: dose 10 mg/kg, route oral; settings: in vivo
[27] = tested on: Rattus norvegicus; assay: Volume of distribution at steady state in Wistar rat at 10 mg/kg, po; assay type: ADME, organism-based; design: dose 10 mg/kg, route oral; settings: in vivo
[28] = molecular target: T4, Phosphatidylinositol 4,5-bisphosphate 3-kinase catalytic subunit gamma isoform; assay: Inhibition of recombinant GST-tagged PI3K p110gamma by KinaseGlo assay
[29] = molecular target: T1, Phosphatidylinositol 4,5-bisphosphate 3-kinase catalytic subunit alpha isoform; assay: Inhibition of recombinant GST-tagged PI3K p110alpha by KinaseGlo assay
[30] = molecular target: T2, Phosphatidylinositol 4,5-bisphosphate 3-kinase catalytic subunit delta isoform; assay: Inhibition of recombinant GST-tagged PI3K p110delta by KinaseGlo assay
[31] = molecular target: T3, Phosphatidylinositol 4,5-bisphosphate 3-kinase catalytic subunit beta isoform; assay: Inhibition of recombinant GST-tagged PI3K p110beta by KinaseGlo assay
[32] = tested on: Rattus norvegicus; assay: as §1; assay type: ADME, organism-based, Plasma; design: dose 10 mg/kg, route oral; settings: in vivo
[33] = Aqueous solubility of the compound at pH 6.8; assay type: physicochemical

Chain of Phosphatidylinositol 4-kinase beta (Q9UBF8 whole entry): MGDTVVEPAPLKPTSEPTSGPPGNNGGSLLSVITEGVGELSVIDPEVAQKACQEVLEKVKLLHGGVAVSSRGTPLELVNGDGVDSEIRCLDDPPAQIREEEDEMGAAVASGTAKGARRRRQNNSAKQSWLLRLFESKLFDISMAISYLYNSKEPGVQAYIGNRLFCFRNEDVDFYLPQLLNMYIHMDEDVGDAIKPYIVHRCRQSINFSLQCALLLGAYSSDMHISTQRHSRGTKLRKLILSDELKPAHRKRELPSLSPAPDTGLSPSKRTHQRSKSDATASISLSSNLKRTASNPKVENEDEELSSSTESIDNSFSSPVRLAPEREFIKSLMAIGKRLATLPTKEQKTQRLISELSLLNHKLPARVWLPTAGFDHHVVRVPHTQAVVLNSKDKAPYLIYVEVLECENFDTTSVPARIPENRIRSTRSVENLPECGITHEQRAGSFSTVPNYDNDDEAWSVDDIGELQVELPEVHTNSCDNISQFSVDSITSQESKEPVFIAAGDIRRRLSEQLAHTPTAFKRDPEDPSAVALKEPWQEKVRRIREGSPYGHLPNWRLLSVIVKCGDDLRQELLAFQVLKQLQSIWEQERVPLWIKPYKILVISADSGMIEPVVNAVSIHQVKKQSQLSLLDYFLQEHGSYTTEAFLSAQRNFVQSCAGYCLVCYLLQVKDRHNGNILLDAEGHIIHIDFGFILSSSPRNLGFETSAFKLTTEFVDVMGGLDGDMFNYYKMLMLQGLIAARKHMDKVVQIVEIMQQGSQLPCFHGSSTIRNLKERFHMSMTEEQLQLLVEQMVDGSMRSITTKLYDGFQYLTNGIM
Chain of Phosphatidylinositol 3-kinase catalytic subunit type 3 (Q8NEB9 whole entry): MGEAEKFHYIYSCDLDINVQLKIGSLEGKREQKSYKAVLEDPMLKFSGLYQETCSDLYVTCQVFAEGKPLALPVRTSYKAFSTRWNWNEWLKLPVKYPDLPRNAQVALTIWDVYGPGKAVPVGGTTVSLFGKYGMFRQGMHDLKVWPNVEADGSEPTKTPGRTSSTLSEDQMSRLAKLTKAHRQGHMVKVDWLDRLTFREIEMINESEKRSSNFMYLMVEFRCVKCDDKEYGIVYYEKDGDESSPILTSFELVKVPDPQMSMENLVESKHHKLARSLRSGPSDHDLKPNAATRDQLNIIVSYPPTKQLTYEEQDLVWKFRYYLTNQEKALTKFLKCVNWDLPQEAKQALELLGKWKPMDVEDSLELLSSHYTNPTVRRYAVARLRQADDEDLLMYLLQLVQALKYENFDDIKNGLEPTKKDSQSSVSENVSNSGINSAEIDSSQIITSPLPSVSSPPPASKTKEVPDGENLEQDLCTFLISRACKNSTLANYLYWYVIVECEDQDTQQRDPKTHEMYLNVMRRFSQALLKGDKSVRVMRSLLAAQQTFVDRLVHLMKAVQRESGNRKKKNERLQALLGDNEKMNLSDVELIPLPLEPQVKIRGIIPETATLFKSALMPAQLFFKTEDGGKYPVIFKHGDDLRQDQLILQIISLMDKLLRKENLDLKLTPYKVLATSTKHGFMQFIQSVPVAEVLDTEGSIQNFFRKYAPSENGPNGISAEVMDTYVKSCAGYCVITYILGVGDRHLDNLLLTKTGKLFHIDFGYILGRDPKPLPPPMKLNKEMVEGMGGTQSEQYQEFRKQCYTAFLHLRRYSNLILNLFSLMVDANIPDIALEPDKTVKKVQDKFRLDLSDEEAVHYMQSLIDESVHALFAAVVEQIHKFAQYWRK
T1 sequence (P42336 whole entry, canonical isoform): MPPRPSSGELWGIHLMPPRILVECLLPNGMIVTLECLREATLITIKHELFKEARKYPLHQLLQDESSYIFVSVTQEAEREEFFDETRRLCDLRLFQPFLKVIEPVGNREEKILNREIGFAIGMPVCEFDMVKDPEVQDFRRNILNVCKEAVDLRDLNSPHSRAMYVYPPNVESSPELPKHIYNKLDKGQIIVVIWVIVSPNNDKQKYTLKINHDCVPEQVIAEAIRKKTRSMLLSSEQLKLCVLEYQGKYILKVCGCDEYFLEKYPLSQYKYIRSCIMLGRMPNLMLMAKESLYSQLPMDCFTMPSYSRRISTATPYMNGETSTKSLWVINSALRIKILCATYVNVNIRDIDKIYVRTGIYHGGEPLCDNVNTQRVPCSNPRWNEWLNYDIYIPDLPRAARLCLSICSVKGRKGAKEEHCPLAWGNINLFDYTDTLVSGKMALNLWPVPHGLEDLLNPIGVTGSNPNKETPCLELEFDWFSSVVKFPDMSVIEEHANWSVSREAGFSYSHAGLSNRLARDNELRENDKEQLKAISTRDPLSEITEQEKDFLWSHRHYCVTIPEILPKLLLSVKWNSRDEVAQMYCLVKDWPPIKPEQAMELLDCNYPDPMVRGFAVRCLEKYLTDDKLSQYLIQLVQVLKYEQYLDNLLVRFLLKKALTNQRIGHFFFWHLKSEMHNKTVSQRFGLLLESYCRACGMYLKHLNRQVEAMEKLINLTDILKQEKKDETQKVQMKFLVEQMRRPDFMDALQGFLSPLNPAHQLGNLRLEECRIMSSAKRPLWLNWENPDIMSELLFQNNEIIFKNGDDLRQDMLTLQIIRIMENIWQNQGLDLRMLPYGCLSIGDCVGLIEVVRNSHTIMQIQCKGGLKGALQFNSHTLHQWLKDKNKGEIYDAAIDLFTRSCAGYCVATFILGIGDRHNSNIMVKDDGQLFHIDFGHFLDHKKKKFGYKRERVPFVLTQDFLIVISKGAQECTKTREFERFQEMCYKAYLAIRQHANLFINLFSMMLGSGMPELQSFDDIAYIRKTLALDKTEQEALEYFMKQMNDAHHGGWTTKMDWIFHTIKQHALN
T4 sequence (P48736 whole entry, canonical isoform): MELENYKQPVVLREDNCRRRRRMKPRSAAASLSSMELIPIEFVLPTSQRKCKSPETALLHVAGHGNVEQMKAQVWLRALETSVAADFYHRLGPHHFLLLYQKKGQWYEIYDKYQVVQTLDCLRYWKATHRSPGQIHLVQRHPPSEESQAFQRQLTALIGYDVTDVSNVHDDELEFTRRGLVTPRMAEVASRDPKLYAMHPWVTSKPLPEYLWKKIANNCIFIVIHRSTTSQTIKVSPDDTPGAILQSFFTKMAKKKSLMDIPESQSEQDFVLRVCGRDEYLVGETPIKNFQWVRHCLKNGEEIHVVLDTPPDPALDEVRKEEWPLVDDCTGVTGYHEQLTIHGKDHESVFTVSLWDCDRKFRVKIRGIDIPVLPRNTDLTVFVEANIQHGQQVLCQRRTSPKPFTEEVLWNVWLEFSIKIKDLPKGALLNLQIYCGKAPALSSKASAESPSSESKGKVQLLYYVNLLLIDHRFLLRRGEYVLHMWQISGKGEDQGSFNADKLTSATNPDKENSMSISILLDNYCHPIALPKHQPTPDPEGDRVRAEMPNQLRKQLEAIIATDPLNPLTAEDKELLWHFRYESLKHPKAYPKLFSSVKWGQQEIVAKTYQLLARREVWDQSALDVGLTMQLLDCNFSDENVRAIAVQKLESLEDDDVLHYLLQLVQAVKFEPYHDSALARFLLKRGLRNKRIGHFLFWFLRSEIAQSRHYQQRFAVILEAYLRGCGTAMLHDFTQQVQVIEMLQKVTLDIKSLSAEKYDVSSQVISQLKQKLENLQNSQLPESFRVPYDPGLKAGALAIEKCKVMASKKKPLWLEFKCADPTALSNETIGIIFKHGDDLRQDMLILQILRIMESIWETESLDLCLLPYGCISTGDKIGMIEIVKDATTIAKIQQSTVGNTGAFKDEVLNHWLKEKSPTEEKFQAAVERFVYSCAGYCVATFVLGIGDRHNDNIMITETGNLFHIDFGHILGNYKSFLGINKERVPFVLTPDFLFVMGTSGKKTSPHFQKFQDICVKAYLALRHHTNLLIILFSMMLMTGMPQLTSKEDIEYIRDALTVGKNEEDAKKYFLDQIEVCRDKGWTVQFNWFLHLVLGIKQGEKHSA
T3 sequence (P42338 whole entry, canonical isoform): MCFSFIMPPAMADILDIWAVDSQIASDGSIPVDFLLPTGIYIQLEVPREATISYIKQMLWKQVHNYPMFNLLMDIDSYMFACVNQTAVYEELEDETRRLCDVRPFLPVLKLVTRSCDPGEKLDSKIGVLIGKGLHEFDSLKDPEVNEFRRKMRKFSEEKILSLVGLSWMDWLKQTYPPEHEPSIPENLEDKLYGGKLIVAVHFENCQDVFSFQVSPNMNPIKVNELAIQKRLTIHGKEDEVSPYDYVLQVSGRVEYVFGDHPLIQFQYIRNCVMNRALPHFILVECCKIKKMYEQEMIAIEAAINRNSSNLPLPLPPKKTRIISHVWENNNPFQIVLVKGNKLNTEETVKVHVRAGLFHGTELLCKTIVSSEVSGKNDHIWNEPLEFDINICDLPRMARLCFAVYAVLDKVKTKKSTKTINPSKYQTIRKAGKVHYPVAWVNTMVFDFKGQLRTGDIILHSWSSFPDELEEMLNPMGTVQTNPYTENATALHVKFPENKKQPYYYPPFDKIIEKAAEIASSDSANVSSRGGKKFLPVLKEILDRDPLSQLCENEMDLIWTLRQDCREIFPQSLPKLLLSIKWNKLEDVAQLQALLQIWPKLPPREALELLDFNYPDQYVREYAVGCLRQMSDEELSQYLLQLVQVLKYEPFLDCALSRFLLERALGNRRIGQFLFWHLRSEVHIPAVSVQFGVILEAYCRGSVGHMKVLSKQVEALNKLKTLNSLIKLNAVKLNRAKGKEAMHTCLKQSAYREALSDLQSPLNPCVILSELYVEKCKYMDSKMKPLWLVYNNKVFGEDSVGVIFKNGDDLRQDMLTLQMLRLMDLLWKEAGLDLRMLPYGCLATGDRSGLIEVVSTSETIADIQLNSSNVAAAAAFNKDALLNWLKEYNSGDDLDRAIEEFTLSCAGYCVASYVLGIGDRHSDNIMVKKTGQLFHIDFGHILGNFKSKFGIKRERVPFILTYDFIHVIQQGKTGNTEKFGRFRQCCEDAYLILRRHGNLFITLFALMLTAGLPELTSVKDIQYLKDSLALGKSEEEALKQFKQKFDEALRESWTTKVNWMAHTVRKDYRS

| SMILES | Ki [1] | Ki [2] | Ki [3] | IC50 [4] | Ki [5] | further results |
| --- | --- | --- | --- | --- | --- | --- |
| CC(=O)Nc1nc(C)c(-c2ccc(S(C)(=O)=O)c(C(F)(F)F)c2)s1 | 28 nM | 74 nM | 870 nM | 290 nM | 61 nM | – |
| CC(=O)Nc1nc(C)c(-c2ccc(-n3cccn3)cc2)s1 | 30 nM | 19 nM | 410 nM | 320 nM | 110 nM | – |
| CCn1nnc(CCNC(=O)Nc2nc(C)c(-c3ccc(S(C)(=O)=O)c(F)c3)s2)n1 | 1400 nM | 470 nM | 320 nM | 270 nM | – | IC50 [6]: 590 nM; IC50 [7]: 1610 nM; IC50 [8]: > 9100 nM; IC50 [9]: > 10000 nM; IC50 [10]: > 9100 nM; IC50 [11]: 1330 nM; IC50 [12]: 118 nM; IC50 [13]: 117 nM; Tmax [14]: 60 min; Cmax [15]: 490 nM; AUC [16]: 4.31 µM·h; bioavailability [17]: 24%; CL/F [18]: 4 mL/min/kg; half-life [19]: 108 min; Vdss [20]: 0.6 L/kg |
| CC(=O)Nc1nc(C)c(-c2ccc(S(C)(=O)=O)c(Cl)c2)s1 | 35 nM | 79 nM | 1300 nM | 1930 nM | 57 nM | – |
| CC(=O)Nc1nc(C)c(-c2ccc(S(C)(=O)=O)c(C#N)c2)s1 | 45 nM | 79 nM | 760 nM | 300 nM | 62 nM | – |
| Cc1nc(NC(=O)N2CCC[C@H]2C(N)=O)sc1-c1ccc(-n2cccn2)cc1 | 5 nM | 220 nM | 2000 nM | 930 nM | 530 nM | IC50 [6]: 370 nM; IC50 [7]: 320 nM; IC50 [8]: > 9100 nM; IC50 [9]: > 10000 nM; IC50 [10]: > 9100 nM; IC50 [11]: 920 nM; Tmax [21]: 240 min; Cmax [22]: 280 nM; AUC [23]: 4.1 µM·h; bioavailability [24]: 21%; CL/F [25]: 21 mL/min/kg; half-life [26]: 42 min; Vdss [27]: 1.29 L/kg |
| NC(=O)[C@@H]1CCCN1C(=O)Nc1nc2ccc(-c3cnc(N)c(C(F)(F)F)c3)cc2s1 | – | – | – | – | – | IC50 [28]: 1190 nM; IC50 [29]: 40 nM; IC50 [30]: 540 nM; IC50 [31]: 2940 nM |
| Cc1cc(NC(=O)CCNC(=O)Nc2nc(C)c(-c3ccc(S(C)(=O)=O)c(F)c3)s2)no1 | 110 nM | 3 nM | 860 nM | – | 120 nM | – |
| Cc1nc(NC(=O)N2CCC[C@H]2C(N)=O)sc1-c1ccc(S(C)(=O)=O)cc1 | 187 nM | 3620 nM | > 10000 nM | – | 5810 nM | – |
| CC(=O)Nc1nc(C)c(-c2ccc(S(N)(=O)=O)cc2)s1 | 110 nM | 210 nM | 1430 nM | 2600 nM | 110 nM | – |
| Cc1nc(NC(=O)NCCC(=O)OC(C)(C)C)sc1-c1ccc(S(C)(=O)=O)c(F)c1 | 2130 nM | 380 nM | 90 nM | – | 20 nM | – |
| CC(=O)Nc1nc(C)c(-c2ccc(S(C)(=O)=O)c(Br)c2)s1 | 11 nM | 61 nM | 550 nM | 340 nM | 32 nM | – |
| CC(=O)Nc1nc(C)c(-c2ccc(C(C)=O)cc2)s1 | 190 nM | 260 nM | 1940 nM | 1760 nM | 260 nM | – |
| CC(=O)Nc1nc(C)c(-c2ccc(S(C)(=O)=O)c(F)c2)s1 | – | – | – | 220 nM | – | – |
| Cc1cc(NC(=O)CCNC(=O)Nc2nc(C)c(-c3ccc(-n4cccn4)cc3)s2)no1 | 150 nM | 4 nM | 340 nM | 720 nM | 1020 nM | IC50 [6]: 14 nM; IC50 [7]: 5 nM; IC50 [8]: > 9100 nM; IC50 [9]: > 10000 nM; IC50 [10]: > 9100 nM; IC50 [11]: 40 nM; Tmax [21]: 480 min; Cmax [22]: 50 nM; AUC [32]: 0.69 µM·h; bioavailability [24]: 3%; half-life [26]: 36 min; Vdss [27]: 0.4 L/kg; solubility [33]: < 2 µg/mL |
| CC(=O)Nc1nc(C)c(-c2ccc(S(C)(=O)=O)cc2)s1 | 200 nM | 190 nM | 1360 nM | 1930 nM | 230 nM | – |
| CC(=O)c1ccc(-c2sc(NC(=O)NCCC(=O)NC(C)(C)C)nc2C)cc1 | 1890 nM | 740 nM | 250 nM | 220 nM | – | IC50 [6]: 760 nM; IC50 [7]: 1160 nM; IC50 [8]: > 9100 nM; IC50 [9]: > 10000 nM; IC50 [10]: > 9100 nM; IC50 [11]: 240 nM; Tmax [21]: 30 min; Cmax [22]: 1720 nM; AUC [23]: 10.8 µM·h; bioavailability [24]: 57%; CL/F [25]: 23 mL/min/kg; half-life [26]: 48 min; Vdss [27]: 1.4 L/kg |
| Cc1nc(NC(=O)N2CCC[C@H]2C(N)=O)sc1-c1ccc(S(C)(=O)=O)c(C(F)(F)F)c1 | 20 nM | 1670 nM | > 10000 nM | – | 1140 nM | – |
